Measurements from patent publication US11390661B2, “HCMV entry inhibitors” (priority 2016, dated 2022).

Assays:
Assay type in all cases: cell-based, Human cytomegalovirus
[1] = test system: HCMV strain TB40/E; experiment: Inhibition of infection of endothelial cells (HECs), IE antigen immunofluorescence
Procedure: For testing the inhibitory effect of antivirals or fusion proteins on HCMV, the respective inhibitors were diluted in MEM and mixed with infectious supernatants, the mixtures were incubated for 2 h at 37° C. before addition to the cells. For fibroblast infection the virus-inhibitor mixture was incubated on the cells for about 24 h. If endothelial cells were included in the experiment, all cells were supplied with their respective maintenance media after 2 h, and further incubated for 22 h.
Infection efficiencies were determined by immunofluorescence staining for viral proteins. For fixation and permeabilization the cells were incubated with 80% acetone for 5 min. For HCMV infected cells the immediate early proteins pUL122/123 were detected with a mouse monoclonal (clone E13, Argene) and visualized using a Cy3 conjugated goat anti-mouse secondary antibody (Jackson Immuno Research). HSV infected cultures were stained 6 h post infection for ICP0 using a mouse monoclonal (clone 11060, Santa Cruz) and goat anti-mouse AF488 (life technologies). DAPI was used to locate nuclei. Infection rates were determined by counting the number of cell nuclei positive for the respective viral protein, as well as the total number of nuclei per image. For each condition three images were evaluated. […]

[2] = test system: HCMV strains AD169, Towne, Merlin, VR1814, VHL/E, TB40/F; experiment: Inhibition of HFF infection by other HCMV strains; conditions: 250 ng/ml, HFFs
Procedure: Infection efficiencies were determined by immunofluorescence staining for viral proteins. For fixation and permeabilization the cells were incubated with 80% acetone for 5 min. For HCMV infected cells the immediate early proteins pUL122/123 were detected with a mouse monoclonal (clone E13, Argene) and visualized using a Cy3 conjugated goat anti-mouse secondary antibody (Jackson Immuno Research). HSV infected cultures were stained 6 h post infection for ICP0 using a mouse monoclonal (clone 11060, Santa Cruz) and goat anti-mouse AF488 (life technologies). DAPI was used to locate nuclei. Infection rates were determined by counting the number of cell nuclei positive for the respective viral protein, as well as the total number of nuclei per image. For each condition three images were evaluated.
Next, it was tested whether soluble PDGFR-alpha-Fc would inhibit not only strain TB40/E but also other strains of HCMV. […] After an overnight incubation, the fraction of infected cells was determined by immunofluorescence staining of viral immediate early antigen. […]

[3] = test system: TB40-BACKL7-UL32EGFP-UL100mCherry; experiment: Adsorption and penetration of dual fluorescent HCMV particles on HECs; conditions: 100 ng/ml
Procedure: To distinguish between adsorption and penetration of viral particles the inventors made use of dual fluorescent HCMV TB40-BACKL7-UL32EGFP-UL100mCherry (Sampaio 2013). HFFs and HECs were seeded at a density of 40,000 cells per well on gelatin-coated MIDI plates. Overnight produced cell-free infectious supernatant of the fluorescent virus was pre-incubated with PDGFR-Fcs for 2 h at 37° C. Before addition of the mixture the cells were pre-incubated with MEM for 30 min. […] After fixation with acetone, the EGFP signal of pUL32-EGFP was enhanced using mouse-anti-GFP (clone 3E6, Invitrogen) and Alexa488-anti-mouse (Life Technologies). DAPI (4′,6-diamidino-2-phenylindole) was added to mark the cell nuclei. The number of mCherry and EGFP positive particles which are enveloped was compared to the number of particles which were only green per cell. These […] particles have lost their UL100mCherry containing envelope, presumably by fusion with cellular membranes.
To further investigate, which of the initial steps of infection are blocked, the inventors performed a series of experiments that allowed discriminating between adsorption and penetration. They used the dual fluorescent virus TB40-BACKL7-UL32EGFP-UL100mCherry (Sampaio 2013) as it allows to discriminate between enveloped (EGFP-positive and mCherry positive) and non-enveloped particles (only EGFP positive). […]

[4] = test system: HCMV TB40E; experiment: Post adsorption inhibition on HFFs with or without PEG fusion
Procedure: For the analysis of post adsorption inhibition, HFFs were seeded at a density of 40,000 per well on IBIDI plates and incubated for 1 day before infection. Infectious supernatants of TB40E which were produced within 24 hours were cleared by centrifugation. Two identical plates were treated as follows: Cells and virus dilutions were precooled on ice for 15 min before attachment of the virus was allowed on ice for 1 h. The virus containing medium was exchanged by pre-cooled MEM with or without 200 ng/ml PDGFR-alpha-Fc. After 2 h incubation of the inhibitor with the cells on ice, one plate was directly shifted to 37° C., whereas the other cells were treated with pre-warmed 50% PEG (Roche) for 30 sec. The PEG was washed off by five times washing with pre-warmed PBS. Supplied with pre-warmed MEM containing again 200 ng/ml PDGFR-alpha-Fc, the cells were then incubated at 37° C. After 2 h incubation the medium was exchanged on PEG-treated and untreated cells and infection was allowed to proceed for 24 h before infection efficiencies were assessed by immediate early staining. Efficient PEG fusion was controlled visually by detection of syncytia.
HCMV virus particles were adsorbed to HFFs for 1 h on ice. The virus containing medium was then exchanged by medium containing PDGFR-alpha-Fc at a concentration of 200 ng/ml. […]

PDGFR-alpha-Fc: recombinant Fc-fusion protein of the PDGFR-alpha extracellular domain, obtained from R&D (6765-PR-050)
extent of reduction of infection of HECs [1]: incomplete | EC50 of inhibition of infection of HECs ([1]; virus pre-incubated 2 h): 0.02 to 0.05 µg/mL | reduction of infection, strains other than VR1814 [2]: complete | effect on penetration of HECs [3]: affected only in fibroblasts | reduction of adsorption on HECs [3]: 75% | infectivity of already adsorbed viruses (reduced to) ([4]; 200 ng/ml added post adsorption, HFFs): 50% | post adsorption inhibition after addition of PEG ([4]; 200 ng/ml, 50% PEG 30 sec): completely rescued
